These results are taken from patent US9102622B2 (University of Connecticut, priority 2006, dated 2015).

Where two headings read alike, the source gives them in different places.

The target in data set [1] is fatty acid amide hydrolase (FAAH) (Rattus norvegicus (Rat), UniProt P97612). Description: FAAH enzyme assay: inhibition of anandamide (AEA) hydrolysis, arachidonic acid quantified by HPLC. Type of data set: biochemical. Particulars: for IC50 / Ki: eight-point assay; for IC50: anandamide hydrolysis by FAAH, read-out: IC50; for Ki: calculated with Prizm software, read-out: Ki; for inhibition at 100 µM / inhibition at 0.1 µM: read-out: % Inhibition (Concentration); for inhibition at 0.1 µM: inhibitor 100 nM. As to the method: The resulting supernatant is injected onto the HPLC.

The mark [2] stands for this setting: one-point assay, inhibitor 100 μM, partially purified rat brain FAAH, 15 min.
Where [3] appears, read: one-point assay, partially purified rat brain FAAH, 15 min.

fatty acid amide hydrolase (FAAH), sequence (P97612 whole entry): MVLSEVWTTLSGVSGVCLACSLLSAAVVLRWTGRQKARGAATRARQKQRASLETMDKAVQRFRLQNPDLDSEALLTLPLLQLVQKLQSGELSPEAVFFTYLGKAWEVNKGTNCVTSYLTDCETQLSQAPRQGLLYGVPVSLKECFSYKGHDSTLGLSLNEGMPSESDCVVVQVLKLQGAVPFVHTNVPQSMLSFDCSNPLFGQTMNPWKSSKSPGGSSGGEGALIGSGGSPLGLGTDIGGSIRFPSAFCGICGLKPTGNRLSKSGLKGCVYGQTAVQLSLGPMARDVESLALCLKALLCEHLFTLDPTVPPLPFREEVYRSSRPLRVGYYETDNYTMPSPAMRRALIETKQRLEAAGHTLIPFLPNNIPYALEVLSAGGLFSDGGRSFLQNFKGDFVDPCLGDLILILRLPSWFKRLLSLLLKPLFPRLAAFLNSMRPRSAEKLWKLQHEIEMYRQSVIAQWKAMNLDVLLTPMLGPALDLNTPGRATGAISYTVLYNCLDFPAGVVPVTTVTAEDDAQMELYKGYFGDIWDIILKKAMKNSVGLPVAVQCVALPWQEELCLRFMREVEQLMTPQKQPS

`Oc1cccc(OCCCC(O)(O)C(F)(F)F)c1` (hydrate or solvate) [Compound 24.5, 1,1,1-Trifluoro-2,2-dihydroxy-5-[3-(hydroxy)phenoxy]pentane]: the melting point was 76 to 77 °C.

Compound `O=S(=O)(Cl)CCCCCCCc1ccc(OCc2ccccc2)cc1` [Compound 12.1, 7-(4-Benzyloxy-phenyl)-heptanesulfonyl chloride] had a melting point of 33 to 35 °C. For the same compound, in data set [1], the IC50 stood at 53800 nM and the Ki is 12700 nM. Moreover, the inhibition at 100 µM in data set [1] (setting [2]) is 99%.

Regarding `O=S(=O)(F)CCCCCCCc1ccc(OCc2ccccc2)cc1` [Compound 13.1, 7-(4-Benzyloxy-phenyl)-heptanesulfonyl fluoride], the melting point lay within 35 to 38 °C. The inhibition at 100 µM in data set [1] (setting [2]) was 100%.

Regarding `O=S(=O)(F)CCCCCc1ccc(OCc2ccccc2)cc1` [Compound 13.4, 5-(4-Benzyloxy-phenyl)-pentanesulfonyl fluoride], the melting point lay in the range of 66 to 68 °C. For the same compound, in data set [1], the IC50 stood at 180 nM and the Ki was 15 nM. The inhibition at 100 µM in data set [1] (setting [2]) is 97%.

Take `O=S(=O)(F)CCCCCCCc1ccc(O)cc1` [Compound 14.1, 7-(4-Hydroxy-phenyl)-heptanesulfonyl fluoride]: the melting point lay within 47 to 51 °C. Moreover, the inhibition at 100 µM in data set [1] (setting [2]) was found to be 100%.

On to `O=S(=O)(F)CCCCCc1ccc(O)cc1` [Compound 14.4, 5-(4-Hydroxy-phenyl)-pentanesulfonyl fluoride], for which the melting point was in the range of 32 to 35 °C. In addition, the half-inhibitory concentration (IC50) in data set [1] is 346 nM. For the same compound, the inhibition at 100 µM in data set [1] (setting [2]) was 99%.

For the compound `O=S(=O)(Cl)CCCCOc1ccccc1` [Compound 16, 4-Phenoxybutyl sulfonyl chloride], the melting point is 65 to 67 °C. For the same compound, in data set [1], the IC50 was found to be 53800 nM and the Ki is 12700 nM. Also, the inhibition at 100 µM in data set [1] (setting [2]) is 99%.

As to `O=S(=O)(F)CCCCOc1ccccc1` [Compound 17, 4-Phenoxybutylsulfonyl fluoride], the melting point is 74 to 76 °C. Moreover, in data set [1], the IC50 stood at 226 nM and the Ki was 53 nM. In data set [1] (setting [2]), the inhibition at 100 µM was found to be 100%.

Regarding `O=C(NCCCc1ccccc1)NCc1ccccn1` [Compound 59.1, N-(3-phenylpropyl)-N′-(2-pyridinylmethyl)-urea], the melting point lay within 89 to 90 °C.

`O=C(NCCCc1ccccc1)Nc1ccccn1` [Compound 59.2, N-(3-phenylpropyl)-N′-(2-pyridinyl)-urea] gave a melting point of 127 to 128 °C.

In the case of `Cc1nnc(C(=O)CCCCCCOc2ccc(OCc3ccccc3)cc2)o1` [Compound 65.2, 7-(4-Benzyloxy-phenoxy)-1-(5-methyl-1,3,4-oxadiazol-2-yl)-heptan-1-one], in data set [1], the IC50 came out at 120 nM and the Ki is 8 nM. In data set [1] (setting [2]), the inhibition at 100 µM came to 96%.

Regarding `Cc1nnc(C(=O)CCCCCCOc2ccc(O)cc2)o1` [Compound 66, 7-(4-Hydroxy-phenoxy)-1-(5-methyl-1,3,4-oxadiazol-2-yl)-heptan-1-one], in data set [1], the IC50 stood at 100 nM, the Ki was 6 nM and the inhibition at 100 µM amounted to 97%.

For the compound `O=C(CCCCCCOc1ccccc1)c1nnc(COCc2ccccc2)o1` [Compound 73.1, 7-(Phenoxy)-1-(5-benzyloxymethyl-1,3,4-oxadiazol-2-yl)-heptan-1-one], in data set [1], the IC50 is 25 nM and the Ki is 2 nM. Besides, the inhibition at 100 µM in data set [1] (setting [2]) came to 94%.

For the compound `O=C(CCCCCCOc1ccc(OCc2ccccc2)cc1)c1nnc(COCc2ccccc2)o1` [Compound 73.2, 7-(4-Benzyloxy-phenoxy)-1-(5-benzyloxymethyl-1,3,4-oxadiazol-2-yl)-heptan-1-one], in data set [1], the IC50 was 21 nM, the inhibitory constant (Ki) was 2 nM and the inhibition at 100 µM amounted to 93%.

Consider `O=C(CCCCCCOc1ccccc1)c1nnc(CO)o1` [Compound 74.1, 1-(5-hydroxymethyl-1,3,4-oxadiazol-2-yl)-7-phenoxy-heptan-1-one], for which, in data set [1], the IC50 is 15 nM and the Ki was 1 nM. Also, the inhibition at 100 µM in data set [1] (setting [2]) came to 96%.

Take `O=C(CCCCCCOc1ccc(O)cc1)c1nnc(COCc2ccccc2)o1` [Compound 74.2, 1-(5-benzyloxymethyl-1,3,4-oxadiazol-2-yl)-7-(4-hydroxy-phenoxy)-heptan-1-one]: in data set [1], the IC50 amounted to 39 nM and the Ki is 3 nM. Also, the inhibition at 100 µM in data set [1] (setting [2]) amounted to 92%.

With `COc1cccc(C(=O)c2nnc(C)o2)c1` [Compound 81, 1-(3-Methoxy-phenyl)-1-(5-methyl-1,3,4-oxadiazol-2-yl)-ketone], in data set [1] (setting [2]), the inhibition at 100 µM was 24%.

Turning to `O=C1c2ccccc2S(=O)(=O)N1Cc1ccccc1` [Compound 83.1, N-(Phenylmethyl)saccharin], the inhibition at 100 µM in data set [1] (setting [2]) was found to be 42%.

Regarding `O=C1c2ccccc2S(=O)(=O)N1CCCCOc1ccccc1` [Compound 83.2, N-(4-Phenoxy-butyl)saccharin], the IC50 in data set [1] was 11600 nM. The inhibition at 100 µM in data set [1] (setting [2]) was determined as 91%.

Regarding `O=C1c2ccccc2S(=O)(=O)N1CCCCOc1ccc(OCc2ccccc2)cc1` [Compound 83.3, N-[4-(4-Benzyloxy-phenoxy)-butyl]saccharin], in data set [1], the IC50 came out at 10900 nM. In data set [1] (setting [2]), the inhibition at 100 µM came out at 87%.

In the case of `O=C1c2ccccc2S(=O)(=O)N1CCCCOc1ccc(O)cc1` [Compound 84, N-[4-(4-Hydroxy-phenoxy)-butyl]saccharin], in data set [1], the IC50 turned out to be 9100 nM and the Ki is 900 nM. Besides, in data set [1] (setting [2]), the inhibition at 100 µM came out at 92%.

Turning to `CCOC(=O)C(=O)CCCCOc1cccc(OCc2ccccc2)c1` [Compound 87.1], the inhibition at 100 µM in data set [1] (setting [2]) was found to be 100%.

In the case of `CCOC(=O)C(=O)CCCCCOc1ccccc1` [Compound 87.4, 2-Oxo-7-phenoxy-heptanoic acid ethyl ester], in data set [1], the IC50 came to 290 nM and the Ki is 90 nM. The inhibition at 100 µM in data set [1] (setting [2]) is 100%.

As to `CC(=O)C(F)(F)CCCCOc1cccc(OCc2ccccc2)c1` [Compound 89.1], in data set [1], the IC50 worked out at 270 nM and the Ki is 80 nM. In addition, the inhibition at 0.1 µM in data set [1] (setting [3]) is 79%.

`CC(=O)C(F)(F)CCCCOc1ccccc1` [Compound 89.2]: in data set [1] (setting [2]), the inhibition at 100 µM came to 98%.

In the case of `CC(=O)C(F)(F)CCCCCOc1ccccc1` [Compound 89.4, 3,3-difluoro-8-phenoxy-2-octanone], in data set [1], the IC50 was 230 nM and the Ki is 70 nM. Further, the inhibition at 100 µM in data set [1] (setting [2]) turned out to be 87%.

As to `Cc1nnc(C(=O)C(F)(F)CCCCCCOc2ccccc2)o1` [Compound 89.7, 2,2-Difluoro-8-phenoxy-1-(5-methyl-1,3,4-oxadiazol-2-yl)-octan-1-one], in data set [1], the IC50 came out at 31 nM and the Ki was 9 nM.

In the case of `OC(O)(c1ccccn1)C(F)(F)CCCCOc1ccccc1` [Compound 89.9 Hydrate form], in data set [1], the IC50 turned out to be 39 nM and the Ki was 12 nM. Further, the inhibition at 0.1 µM in data set [1] (setting [3]) was found to be 63%.

With `O=C(c1ccccn1)C(F)(F)CCCCOc1ccccc1` [Compound 89.9, 2,2-Difluoro-6-phenoxy-1-(pyridin-2-yl)-hexan-1-one], in data set [1], the IC50 came out at 77 nM and the Ki was 24 nM. In addition, in data set [1] (setting [3]), the inhibition at 0.1 µM was determined as 52%.

`O=C(c1cccnc1)C(F)(F)CCCCOc1ccccc1` [Compound 89.10, 2,2-Difluoro-6-phenoxy-1-(pyridin-3-yl)-hexan-1-one]: in data set [1], the IC50 came to 164 nM and the Ki is 52 nM. Moreover, the inhibition at 0.1 µM in data set [1] (setting [3]) amounted to 33%.

In the case of `O=C(c1cccnc1)C(F)(F)CCCCOc1cccc(OCc2ccccc2)c1` [Compound 89.11, 2,2-Difluoro-6-[3-(benzyloxy)phenoxy]-1-(pyridin-3-yl)-hexan-1-one], in data set [1], the IC50 was 24 nM and the Ki was 7 nM. The inhibition at 0.1 µM in data set [1] (setting [3]) came out at 85%.

For `Cc1nnc(C(=O)C(F)(F)CCCCOc2ccccc2)o1` [Compound 89.12], in data set [1], the IC50 turned out to be 310 nM and the Ki is 100 nM. The inhibition at 0.1 µM in data set [1] (setting [3]) turned out to be 20%.

Turning to `Cc1nnc(C(=O)C(F)(F)CCCCOc2cccc(OCc3ccccc3)c2)o1` [Compound 89.13], the IC50 in data set [1] was found to be 38 nM.

Turning to `CCOC(=O)C(=O)c1ccc(-c2ccccc2)cc1` [Compound 91.1, Ethyl 2-(biphenyl-4-yl)-2-oxoacetate], in data set [1], the IC50 is 15000 nM and the Ki is 4600 nM. Further, in data set [1] (setting [2]), the inhibition at 100 µM amounted to 86%.

In the case of `CCOC(=O)C(=O)c1ccc(Br)cc1` [Compound 91.5, Ethyl 2-(4-bromophenyl)-2-oxoacetate], the inhibition at 100 µM in data set [1] (setting [2]) is 79%.

For the compound `Cc1nnc(C(=O)C(F)(F)c2ccc(-c3ccccc3)cc2)o1` [Compound 93.1, 2-(Biphenyl-4-yl)-2,2-difluoro-1-(5-methyl-1,3,4-oxadiazol-2-yl)ethanone], in data set [1], the 50% inhibitory concentration (IC50) turned out to be 210 nM and the Ki was 65 nM. The inhibition at 0.1 µM in data set [1] (setting [3]) was 41%.

`Cc1nnc(C(=O)C(F)(F)c2ccc(Br)cc2)o1` [Compound 93.5, 2-(4-Bromophenyl)-2,2-difluoro-1-(5-methyl-1,3,4-oxadiazol-2-yl)ethanone]: in data set [1], the half-maximal inhibitory concentration (IC50) amounted to 1670 nM and the Ki is 530 nM. The inhibition at 100 µM in data set [1] (setting [2]) was determined as 97%.

Regarding `O=C(c1cccc(Br)n1)C(F)(F)c1ccc(-c2ccccc2)cc1` [Compound 93.7, 2-(Biphenyl-4-yl)-1-(6-bromopyridin-2-yl)-2,2-difluoroethanone], in data set [1] (setting [2]), the inhibition at 100 µM was 94%.

In the case of `O=C(CCCCCCOc1ccccc1)C(F)(F)c1ccccn1` [Compound 96.1, 1,1-Difluoro-8-phenoxy-1-(pyridin-2-yl)octan-2-one], in data set [1] (setting [2]), the inhibition at 100 µM was 86%.

As to `O=C(c1ccc(-c2ccccc2)cc1)C(F)(F)c1ccccn1` [Compound 96.2, 1 (Biphenyl-4-yl)-2,2-difluoro-2-(pyridin-2-yl)ethanone], the inhibition at 100 µM in data set [1] (setting [2]) is 61%.
